One may read the NOAEL as the highest dose or exposure tested at which no adverse effect was seen.

Each structure is given as a SMILES string. Values after ≈ are worked out from the molar mass of the structure shown. Where only a bound is given, the exact number is not on record here.

The subject of one data set is Aphidius rhopalosiphi. The settings on record: not reported; mortality.
The next data set has as its system Apis mellifera. The conditions noted are these: acute, duration: 48 hours, mortality.
In the next data set the test system is Bird. The settings on record: acute; oral; unspecified; mortality.
The test system of a further data set is Oryctolagus sp. The conditions noted are these: reproduction developmental; mortality.
The next data set relates to Typhlodromus pyri. The settings on record: not reported; mortality.
Setting [1] is: chronic/long-term, duration: 21 days.

Consider `COC(=O)c1ccccc1S(=O)(=O)NC(=O)N(C)c1nc(C)nc(OC)n1` [Tribenuron-methyl], for which the NOAEL with Anas platyrhynchos (reproductive) came to 21 mg/kg-day; in the data set with Oryctolagus sp., 20 mg/kg-day; in the data set with Rattus norvegicus (chronic, duration: 2 years, body weight) it was 1 mg/kg-day; with Rattus norvegicus (reproduction developmental, reproduction), 19 mg/kg-day; with Rattus norvegicus (subchronic, duration: 90 days, oral, body weight) it was 7 mg/kg-day. The LC50 in the data set on Anas platyrhynchos (short-term, oral, feed, mortality) is above 974 mg/kg-day; with Daphnia magna (acute, duration: 48 hours, mortality), above 894 µg/mL; in the data set on Oncorhynchus mykiss (acute, duration: 96 hours, mortality), 738 µg/mL (≈ 1870 µM). The LEL in the data set on Aphidius rhopalosiphi and with Typhlodromus pyri was 30 g/ha throughout. For the same molecule, the LD50 in the data set on Apis mellifera (dermal) is above 98.4 µg/piece; in the data set on Apis mellifera (oral, unspecified), above 9.1 µg/piece; in the data set with Bird, above 2250 mg/kg; with Rattus norvegicus (acute, oral, mortality), above 5000 mg/kg. Besides, the figures for the NOEC with Daphnia magna (setting [1]) and in the data set with Oncorhynchus mykiss (setting [1]) were 120 mg/L and 560 mg/L, respectively.
